In the supplement of paper PMC10307832:

Tests used:
Assay in all cases: relative viability (nuclei count vs DMSO), 5 days (fraction); higher = more cells survive
COR-L23 = system: COR-L23
In short: (§1)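 Five library-drug doses in √10 steps were combined with a fixed anchor-drug dose, or a single drug was given alone, by pin tool to lung cancer cell lines in 1536-well plates the day after seeding. Nuclei were stained and counted after 5 days. Relative viability is the nuclei count in treated wells over that in vehicle wells, taken as the median of duplicate plates.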

ChaGo-K-1 = system: ChaGo-K-1
In short: as §1

EMC-BAC-2 = system: EMC-BAC-2
In short: as §1

HARA = system: HARA
In short: as §1

HCC-15 = system: HCC-15
In short: as §1

HCC-366 = system: HCC-366
In short: as §1

HCC-78 = system: HCC-78
In short: as §1

HOP-62 = system: HOP-62
In short: as §1

LC-2-ad = system: LC-2-ad
In short: as §1

NCI-H1395 = system: NCI-H1395
In short: as §1

O=c1cc(N2CCOCC2)oc2c(-c3cccc4c3sc3ccccc34)cccc12 + CC1(C)CCC(c2ccc(Cl)cc2)=C(CN2CCN(c3ccc(C(=O)NS(=O)(=O)c4ccc(N[C@H](CCN5CCOCC5)CSc5ccccc5)c(S(=O)(=O)C(F)(F)F)c4)cc3)CC2)C1 [Navitoclax] (partner 0.5 µM)
relative viability (COR-L23; first compound 0.01 µM): 1 | relative viability (COR-L23; first compound 0.03162 µM): 1.02 | relative viability (COR-L23; first compound 0.1 µM): 0.976 | relative viability (COR-L23; first compound 0.3162 µM): 1.05 | relative viability (COR-L23; first compound 1 µM): 0.98 | relative viability (ChaGo-K-1; first compound 0.01 µM): 1.04 | relative viability (ChaGo-K-1; first compound 0.03162 µM): 0.927 | relative viability (ChaGo-K-1; first compound 0.1 µM): 0.729 | relative viability (ChaGo-K-1; first compound 0.3162 µM): 1.06 | relative viability (ChaGo-K-1; first compound 1 µM): 0.971 | relative viability (EMC-BAC-2; first compound 0.01 µM): 1.09 | relative viability (EMC-BAC-2; first compound 0.03162 µM): 1.13 | relative viability (EMC-BAC-2; first compound 0.1 µM): 1.18 | relative viability (EMC-BAC-2; first compound 0.3162 µM): 1.16 | relative viability (EMC-BAC-2; first compound 1 µM): 1.17 | relative viability (HARA; first compound 0.01 µM): 1.11 | relative viability (HARA; first compound 0.03162 µM): 1.13 | relative viability (HARA; first compound 0.1 µM): 1.15 | relative viability (HARA; first compound 0.3162 µM): 1.17 | relative viability (HARA; first compound 1 µM): 1.14 | relative viability (HCC-15; first compound 0.01 µM): 0.788 | relative viability (HCC-15; first compound 0.03162 µM): 0.706 | relative viability (HCC-15; first compound 0.1 µM): 0.69 | relative viability (HCC-15; first compound 0.3162 µM): 0.691 | relative viability (HCC-15; first compound 1 µM): 0.667 | relative viability (HCC-366; first compound 0.01 µM): 1.11 | relative viability (HCC-366; first compound 0.03162 µM): 1.1 | relative viability (HCC-366; first compound 0.1 µM): 1.08 | relative viability (HCC-366; first compound 0.3162 µM): 1 | relative viability (HCC-366; first compound 1 µM): 1.04 | relative viability (HCC-78; first compound 0.01 µM): 0.742 | relative viability (HCC-78; first compound 0.03162 µM): 0.831 | relative viability (HCC-78; first compound 0.1 µM): 0.756 | relative viability (HCC-78; first compound 0.3162 µM): 0.755 | relative viability (HCC-78; first compound 1 µM): 0.843 | relative viability (HOP-62; first compound 0.01 µM): 0.935 | relative viability (HOP-62; first compound 0.03162 µM): 1.08 | relative viability (HOP-62; first compound 0.1 µM): 1.02 | relative viability (HOP-62; first compound 0.3162 µM): 0.854 | relative viability (HOP-62; first compound 1 µM): 1.07 | relative viability (LC-2-ad; first compound 0.01 µM): 0.646 | relative viability (LC-2-ad; first compound 0.1 µM): 0.543 | relative viability (LC-2-ad; first compound 0.3162 µM): 0.546 | relative viability (LC-2-ad; first compound 1 µM): 0.386 | relative viability (NCI-H1395; first compound 0.01 µM): 1.08 | relative viability (NCI-H1395; first compound 0.03162 µM): 1.16 | relative viability (NCI-H1395; first compound 0.1 µM): 1.38 | relative viability (NCI-H1395; first compound 0.3162 µM): 1.17
